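These data come from cells grown in 96-well plates and exposed to compound for 48 hours at five concentrations. GI50 is the concentration that inhibits growth by half.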 Active and inactive are the calls of the source. No stated cut-off is given here; in the data, active = GI50 up to about 1.1 µM and inactive = higher.
Legend:
Assay in all cases: NCI anticancer screen, dose series, 48 h
CCRF-CEM = system: CCRF-CEM
SF-268 = system: SF-268
OVCAR-8 = system: OVCAR-8
SN12C = system: SN12C
IGROV-1 = system: IGROV-1
U-251 = system: U-251
NCI-H460 = system: NCI-H460
SNB-19 = system: SNB-19
COLO 205 = system: COLO 205
EKVX = system: EKVX
KM12 = system: KM12
UO-31 = system: UO-31
HT-29 = system: HT-29
OVCAR-3 = system: OVCAR-3
SK-MEL-28 = system: SK-MEL-28
SW-620 = system: SW-620
RPMI-8226 = system: RPMI-8226
SK-MEL-5 = system: SK-MEL-5
NCI-H23 = system: NCI-H23
HCT-15 = system: HCT-15

SMILES | GI50 (CCRF-CEM) | GI50 (SF-268) | GI50 (OVCAR-8) | GI50 (SN12C) | GI50 (IGROV-1) | GI50 (U-251) | GI50 (NCI-H460) | GI50 (SNB-19) | GI50 (COLO 205) | GI50 (EKVX) | GI50 (KM12) | GI50 (UO-31) | GI50 (HT-29) | GI50 (OVCAR-3) | GI50 (SK-MEL-28) | GI50 (SW-620) | GI50 (RPMI-8226) | GI50 (SK-MEL-5) | GI50 (NCI-H23) | GI50 (HCT-15)
O=C1C(Cl)N(c2ccc(Cl)cc2Cl)C1c1c[nH]c2ccccc12 (centres undefined) | > 100 µM (inactive) | > 100 µM (inactive) | > 100 µM (inactive) | > 100 µM (inactive) | > 100 µM (inactive) | > 100 µM (inactive) | > 100 µM (inactive) | 6.01 µM (inactive) | > 100 µM (inactive) | 54 µM (inactive) | > 100 µM (inactive) | 4.75 µM (inactive) | > 100 µM (inactive) | 78.3 µM (inactive) | > 100 µM (inactive) | > 100 µM (inactive) | > 100 µM (inactive) | > 100 µM (inactive) | 92.3 µM (inactive) | 
CCCCCCCCCCCCCCNCC(OC)OC | 9.18 µM (inactive) | 18.5 µM (inactive) | 20.1 µM (inactive) | 15.1 µM (inactive) | 17 µM (inactive) | 16.3 µM (inactive) | 17.8 µM (inactive) | 17.9 µM (inactive) | 14.4 µM (inactive) | 18.2 µM (inactive) | 13.3 µM (inactive) | 12.8 µM (inactive) | 3.78 µM (inactive) | 17.3 µM (inactive) | 16.5 µM (inactive) | 16.1 µM (inactive) |  | 15.2 µM (inactive) | 20.2 µM (inactive) | 11.8 µM
Cn1cnc(/C=C/C#N)c1 | > 100 µM (inactive) | > 100 µM (inactive) | > 100 µM (inactive) | > 100 µM (inactive) | > 100 µM (inactive) | > 100 µM (inactive) | > 100 µM (inactive) | > 100 µM (inactive) | > 100 µM (inactive) | > 100 µM (inactive) | > 100 µM (inactive) | > 100 µM (inactive) | > 100 µM (inactive) | > 100 µM (inactive) | > 100 µM (inactive) | > 100 µM (inactive) |  | > 100 µM (inactive) | > 100 µM (inactive) | > 100 µM
Cc1[nH]c(=O)[nH]c(=O)c1/C=C/C(=O)NC(CO)C[S+]([O-])Cc1ccccc1 (centres undefined) | > 300 µM (inactive) | > 300 µM (inactive) | > 300 µM (inactive) | > 300 µM (inactive) | > 300 µM (inactive) | > 300 µM (inactive) | > 300 µM (inactive) | > 300 µM (inactive) | > 300 µM (inactive) | > 300 µM (inactive) | 299 µM (inactive) | > 300 µM (inactive) | > 300 µM (inactive) | > 300 µM (inactive) | > 300 µM (inactive) | > 300 µM (inactive) | > 300 µM (inactive) | > 300 µM (inactive) | > 300 µM (inactive) | > 300 µM
N/C(=N\O)N/N=C\c1c(O)cc(O)cc1O | 31.8 µM (inactive) | > 100 µM (inactive) | 39.4 µM (inactive) | 78.7 µM (inactive) | 44.5 µM (inactive) | 41.6 µM (inactive) | 49.5 µM (inactive) | 65.9 µM (inactive) | > 72.9 µM (inactive) | > 35.2 µM (inactive) | 36.4 µM (inactive) | 26 µM (inactive) | 93.8 µM (inactive) | > 65.9 µM (inactive) | > 100 µM (inactive) | > 70.3 µM (inactive) | 15.6 µM (inactive) | 50.6 µM (inactive) | > 75 µM (inactive) | 63.4 µM
Cc1cccc(Cl)c1NC(N)=S | 35.6 µM (inactive) | 51.3 µM (inactive) | 25.8 µM (inactive) | > 100 µM (inactive) | 35.4 µM (inactive) | 20.8 µM (inactive) | 51.3 µM (inactive) | 81.5 µM (inactive) | > 100 µM (inactive) | 48.2 µM (inactive) | > 100 µM (inactive) | 51.6 µM (inactive) | 43.4 µM (inactive) | 26.4 µM (inactive) | 55.1 µM (inactive) | 16.6 µM (inactive) | 19 µM (inactive) | > 100 µM (inactive) | 83 µM (inactive) | 18.4 µM
COc1cccc(C2c3cc4c(cc3OC(N3CCOCC3)C2C)OCO4)c1OC (centres undefined) | 4.52 µM (inactive) | 9.59 µM (inactive) | 5.68 µM (inactive) | 8.07 µM (inactive) | 3.46 µM (inactive) |  | 7.71 µM (inactive) | 3.81 µM (inactive) | 9.04 µM (inactive) | 18.1 µM (inactive) | 5.68 µM (inactive) | 7.03 µM (inactive) | 2.96 µM (inactive) | 3.04 µM (inactive) | 13.4 µM (inactive) | 5.4 µM (inactive) | 6.59 µM (inactive) | 9.59 µM (inactive) | 14.8 µM (inactive) | 4.36 µM
O=C(O)CN(CC(=O)O)C1CCCCC1N(CC(=O)O)CC(=O)NCCN=C=S (centres undefined) | > 100 µM (inactive) | > 100 µM (inactive) | > 100 µM (inactive) | > 100 µM (inactive) | > 100 µM (inactive) | > 100 µM (inactive) | > 100 µM (inactive) | > 100 µM (inactive) |  | > 100 µM (inactive) | > 100 µM (inactive) | > 100 µM (inactive) | > 100 µM (inactive) | > 100 µM (inactive) | > 100 µM (inactive) | > 100 µM (inactive) | > 100 µM (inactive) | > 100 µM (inactive) | > 100 µM (inactive) | > 100 µM
COc1cc(-c2ccc(/N=N/c3ccc4c(S(=O)(=O)O)cc(S(=O)(=O)O)c(N)c4c3O)c(OC)c2)ccc1/N=N/c1ccc2c(S(=O)(=O)O)cc(S(=O)(=O)O)c(N)c2c1O | > 100 µM (inactive) | > 100 µM (inactive) | > 100 µM (inactive) | > 100 µM (inactive) | > 100 µM (inactive) | > 100 µM (inactive) | > 100 µM (inactive) | > 100 µM (inactive) | > 100 µM (inactive) | > 100 µM (inactive) | > 100 µM (inactive) | > 100 µM (inactive) | > 100 µM (inactive) | > 100 µM (inactive) | > 100 µM (inactive) | > 100 µM (inactive) | > 100 µM (inactive) | > 100 µM (inactive) | > 100 µM (inactive) | > 100 µM
CCOC(=O)C(NC(C)=O)(Nc1ccc(F)cc1)C(F)(F)F (centres undefined) | > 100 µM (inactive) | > 100 µM (inactive) | > 100 µM (inactive) | > 100 µM (inactive) | 90.8 µM (inactive) | 16.5 µM (inactive) | 7.21 µM (inactive) | > 100 µM (inactive) | > 100 µM (inactive) | > 100 µM (inactive) | 83.2 µM (inactive) | 34.8 µM (inactive) | > 100 µM (inactive) | > 100 µM (inactive) | > 100 µM (inactive) | 28.8 µM (inactive) | 72.1 µM (inactive) | 3.03 µM (inactive) | > 100 µM (inactive) | 0.49 µM
COCCOCCOCCC(=O)NC1CC2CCC1(C)C2(C)C (centres undefined) | > 100 µM (inactive) | > 100 µM (inactive) | > 100 µM (inactive) | > 100 µM (inactive) | > 100 µM (inactive) | > 100 µM (inactive) | > 100 µM (inactive) | > 100 µM (inactive) | > 100 µM (inactive) | > 100 µM (inactive) | > 100 µM (inactive) | > 100 µM (inactive) | > 100 µM (inactive) | > 100 µM (inactive) | > 100 µM (inactive) | > 100 µM (inactive) | > 100 µM (inactive) | > 100 µM (inactive) | > 100 µM (inactive) | > 100 µM
O=C1c2ccccc2OCC1/C=N/O (centres undefined) | > 100 µM (inactive) | > 58.9 µM (inactive) | > 100 µM (inactive) | > 80.5 µM (inactive) | 82.2 µM (inactive) | > 100 µM (inactive) | > 100 µM (inactive) |  |  | 65.6 µM (inactive) | 96.8 µM (inactive) | > 100 µM (inactive) | 62.7 µM (inactive) | > 100 µM (inactive) | 51.6 µM (inactive) | > 100 µM (inactive) | > 100 µM (inactive) | > 85.5 µM (inactive) | > 100 µM (inactive) | 63.7 µM
COc1nc(N)c(C(=O)CCl)c(=O)n1C | 15.1 µM (inactive) | 19.1 µM (inactive) | 19 µM (inactive) | 17.5 µM (inactive) | 13.6 µM (inactive) | 15.5 µM (inactive) | 19 µM (inactive) | 17.7 µM (inactive) | 10.6 µM (inactive) | 15.1 µM (inactive) | 14.3 µM (inactive) | 22 µM (inactive) | 16 µM (inactive) |  | 12 µM (inactive) | 12.4 µM (inactive) | 2.71 µM (inactive) | 15.1 µM (inactive) | > 10 µM (inactive) | 
COc1cccc(NC(=O)N/C(=C/c2ccc(N(CCC#N)CCC#N)cc2)NC(=O)c2cc([N+](=O)[O-])ccc2Cl)c1 | 77.8 µM (inactive) | > 100 µM (inactive) | > 100 µM (inactive) | > 100 µM (inactive) | > 100 µM (inactive) | > 100 µM (inactive) |  | > 100 µM (inactive) | > 100 µM (inactive) | > 100 µM (inactive) | > 100 µM (inactive) | > 100 µM (inactive) |  | > 100 µM (inactive) | 64 µM (inactive) |  | 51.6 µM (inactive) | > 100 µM (inactive) | > 100 µM (inactive) | 95.5 µM
NC(=O)CCC(N=C(N)c1csc(C2OC(CO)C(O)C2O)n1)C(=O)O (centres undefined) | > 100 µM (inactive) | > 100 µM (inactive) | > 100 µM (inactive) | > 100 µM (inactive) | > 100 µM (inactive) | > 100 µM (inactive) |  |  | > 100 µM (inactive) | > 100 µM (inactive) | > 100 µM (inactive) |  | > 100 µM (inactive) |  | > 100 µM (inactive) | > 100 µM (inactive) | > 100 µM (inactive) | > 100 µM (inactive) | > 100 µM (inactive) | > 100 µM

Reference: ChEMBL document CHEMBL1201862, “PubChem BioAssay data set” (2004)
